Source: patent US20230357253A1, “AGONISTS OF STIMULATOR OF INTERFERON GENES STING” (THE SCRIPPS RESEARCH INSTITUTE, priority 2020, published 2023)

System: THP-1 Lucia ISG cells
Test: ISRE-luciferase assay (ISG-LUC activation)
Assay type: cell-based
Conditions: Homo sapiens, THP1-Lucia ISG, 24 hours, luciferase reporter
Protocol: ISRE-luciferase assay. THP-1 Lucia ISG cells were resuspended in low-serum growth media (2% FBS) at a density of 5×10^5 cells/ml and treated with test article or vehicle (DMSO). 50 μL of cells were seeded into each well of a 384-well white greiner plates and incubated for 24 hours. To evaluate expression of the luciferase reporter, 30 μl of Quanti-luc (Invivogen) detection reagent was added to each well and luminescence was read using an Envision plate reader (Perkin Elmer) set with an integration time of 0.1 seconds. For each cell type, luminescence signals for test article samples were normalized to vehicle-treated samples and reported as relative light units (RLU).

Compound | EC50 [nM]
O=C(Nc1cc(CCCOc2cc(NC(=O)c3ccc4nnnn4n3)c(C(=O)O)cc2F)c(F)cc1C(=O)O)c1ccc(-n2ccnc2)nn1 [Compound 126] | 500 to 5000
O=C(Nc1cc(CCOc2cc(NC(=O)c3ccc(-c4cn[nH]c4)nn3)c(C(=O)O)cc2F)c(F)cc1C(=O)O)c1ccc(-c2cn[nH]c2)nn1 [Compound 4, 2-(6-(1H-pyrazol-4-yl)pyridazine-3-carboxamido)-4-(5-(6-(1H-pyrazol-4-yl)pyridazine-3-carboxamido)-4-carboxy-2-fluorophenethoxy)-5-fluorobenzoic acid] | 50 to 500
O=C(Nc1cc(CCCCc2cc(C(=O)O)c(NC(=O)c3ccc(-n4ccnc4)nn3)cc2F)c(F)cc1C(=O)O)c1ccc(-n2ccnc2)nn1 [Compound 127] | 500 to 5000
COC(=O)c1cc(F)c(CCCc2cc(NC(=O)c3ccc(-n4ccnc4)nn3)c(C(=O)OC)cc2F)cc1NC(=O)c1ccc(-n2ccnc2)nn1 [Compound 51] | < 50
COC(=O)c1cc(F)c(OCCCCOc2c(F)cc(C(=O)OC)c(NC(=O)c3ccc(-n4ccnc4)nn3)c2F)c(F)c1NC(=O)c1ccc(-n2ccnc2)nn1 [Compound 36] | < 50
O=C(Nc1cc(CCCc2cc(NC(=O)c3ccc(-n4ccnc4)nn3)c(C(=O)O)cc2Cl)ccc1C(=O)O)c1ccc(-n2ccnc2)nn1 [Compound 66] | 50 to 500
COC(=O)Cc1cc(F)c(CCOc2cc(NC(=O)c3ccc(-n4ccnc4)nn3)c(C(=O)OC)cc2F)cc1NC(=O)c1ccc(-n2ccnc2)nn1 [Compound 131] | 500 to 5000
COc1nc(C(=O)O)c(NC(=O)c2ccc(-n3ccnc3)nn2)cc1CCCc1cc(NC(=O)c2ccc(-n3ccnc3)nn2)c(C(=O)O)cc1F [Compound 134] | 50 to 500
COC(=O)c1cc(Cl)c(OCCCCOc2cc(NC(=O)c3ccc(-n4ccnc4)nn3)c(C(=O)OC)cc2Cl)cc1NC(=O)c1ccc(-n2ccnc2)nn1 [Compound 23] | < 50
O=C(Nc1cc(CSCc2cc(NC(=O)c3ccc(-n4ccnc4)nn3)c(C(=O)O)cc2F)c(F)cc1C(=O)O)c1ccc(-n2ccnc2)nn1 [Compound 132] | < 50
O=C(Nc1cc(CCCc2ccc(C(=O)O)c(NC(=O)c3ccc4nnnn4n3)c2)ccc1C(=O)O)c1ccc2nnnn2n1 [Compound 14] | 500 to 5000
O=C(Nc1cc(OCCCCOc2cnc(C(=O)O)c(NC(=O)c3ccc(-n4ccnc4)nn3)c2)cnc1C(=O)O)c1ccc(-n2ccnc2)nn1 [Compound 45] | > 5000
O=C(Nc1cc(F)c(CCCc2cc(NC(=O)c3ccc4nnnn4n3)c(C(=O)O)cc2F)cc1C(=O)O)c1ccc(-n2ccnc2)nn1 [Compound 94] | 50 to 500
COc1cc(C(=O)O)c(NC(=O)c2ccc(-n3ccnc3)nn2)cc1CCCc1cc(NC(=O)c2ccc(-n3ccnc3)nn2)c(C(=O)O)cc1F [Compound 59] | 50 to 500
O=C(Nc1cc(OCCCOc2cc(C(=O)O)c(NC(=O)c3ccc(-n4ccnc4)nn3)cc2F)c(F)cc1C(=O)O)c1ccc(-n2ccnc2)nn1 [Compound 10, 2-(6-(1H-imidazol-1-yl)pyridazine-3-carboxamido)-5-(3-(5-(6-(1H-imidazol-1-yl)pyridazine-3-carboxamido)-4-carboxy-2-fluorophenoxy)propoxy)-4-fluoro-benzoic acid] | 50 to 500
O=C(Nc1cc(CCCc2cc(NC(=O)c3ccc(-n4ccnc4)nn3)c(C(=O)O)cc2F)c(F)cc1C(=O)O)c1ccc(-n2ccnc2)nn1 [Compound 3, 4,4′-(propane-1,3-diyl)bis(2-(6-(1H-imidazol-1-yl)pyridazine-3-carbox-amido)-5-fluorobenzoic acid)] | 50 to 500
O=c1oc(-c2ccc(-n3ccnc3)nn2)nc2c(F)c(OCCCCOc3c(F)cc4c(=O)oc(-c5ccc(-n6ccnc6)nn5)nc4c3F)c(F)cc12 [Compound 9, 7,7′-(butane-1,4-diylbis(oxy))bis(2-(6-(1H-imidazol-1-yl)pyridazin-3-yl)-6,8-difluoro-4H-benzo[d][1,3]oxazin-4-one)] | 500 to 5000
O=C(Nc1cc(CCCOc2cc(NC(=O)c3ccc(-n4ccnc4)nn3)c(C(=O)O)cc2F)c(F)cc1C(=O)O)c1ccc(-n2ccnc2)nn1 [Compound 125] | 500 to 5000
COC(=O)c1cc(F)c(CCOc2cc(NC(=O)c3ccc4nnnn4n3)c(C(=O)OC)cc2F)cc1NC(=O)c1ccc(-n2ccnc2)nn1 [Compound 113] | < 50
O=C(Nc1cc(CCCc2cc(C(=O)O)c(NC(=O)c3ccc4nnnn4n3)cc2F)c(F)cc1C(=O)O)c1ccc(-n2ccnc2)nn1 [Compound 90] | 500 to 5000

Second part, the molecule after the results:

EC50 [nM] | Compound
> 5000 | COC(=O)c1cc(F)c(OCCc2cc(C(=O)OC)c(NC(=O)c3ccc(-n4ccnc4)nn3)cc2C#N)cc1NC(=O)c1ccc(-n2ccnc2)nn1 [Compound 188]
50 to 500 | O=C(Nc1cc(CCCc2cc(NC(=O)c3ccc(-n4ccnc4)nn3)c(C(=O)O)cc2F)c(F)cc1C(=O)O)c1ccc(-c2cn[nH]c2)nn1 [Compound 159]
50 to 500 | O=C(Nc1cc(OCCc2cc(C(=O)O)c(NC(=O)c3ccc4nnnn4n3)cc2F)c(F)cc1C(=O)O)c1ccc(-n2ccnc2)nn1 [Compound 169]
50 to 500 | O=C(Nc1cc(OCCc2cc(C(=O)O)c(NC(=O)c3ccc(-c4cn[nH]c4)nn3)cc2F)c(F)cc1C(=O)O)c1ccc(-c2cn[nH]c2)nn1 [Compound 204]
50 to 500 | O=C(Nc1cc(OCCc2cc(C(=O)O)c(NC(=O)c3ccc(-n4ccnc4)nn3)cc2F)c(F)cc1C(=O)O)c1ccc(-n2ccnc2)nn1 [Compound 144]
< 50 | COC(=O)c1cc(F)c(COCc2cc(NC(=O)c3ccc(-n4ccnc4)nn3)c(C(=O)OC)cc2F)cc1NC(=O)c1ccc(-n2ccnc2)nn1 [Compound 155]
50 to 500 | O=C(Nc1cc(OCCc2cc(C(=O)O)c(NC(=O)c3ccc(-n4ccnc4)nn3)cc2Cl)c(F)cc1C(=O)O)c1ccc(-n2ccnc2)nn1 [Compound 166]
50 to 500 | O=C(Nc1cc(CCOc2cc(C(=O)O)c(NC(=O)c3ccc(-n4ccnc4)nn3)cc2F)c(F)cc1C(=O)O)c1ccc(-n2ccnc2)nn1 [Compound 141]
50 to 500 | O=C(Nc1cc(OCCCOc2cc(NC(=O)c3ccc(-n4ccnc4)nn3)c(C(=O)O)cc2F)c(F)cc1C(=O)O)c1ccc(-n2ccnc2)nn1 [Compound 168]
< 50 | O=C(Nc1cc(OCCc2c(F)cc(NC(=O)c3ccc(-n4ccnc4)nn3)c(C(=O)O)c2F)c(F)cc1C(=O)O)c1ccc(-n2ccnc2)nn1 [Compound 177]
> 5000 | O=C(Nc1cc(CCc2cc(C(=O)O)c(NC(=O)c3ccc(-n4ccnc4)nn3)cc2F)c(F)cc1C(=O)O)c1ccc(-n2ccnc2)nn1 [Compound 180]
50 to 500 | O=C(Nc1cc(OCCOc2cc(C(=O)O)c(NC(=O)c3ccc(-n4ccnc4)nn3)cc2F)c(F)cc1C(=O)O)c1ccc(-n2ccnc2)nn1 [Compound 191]
50 to 500 | COc1cc(C(=O)O)c(NC(=O)c2ccc(-n3ccnc3)nn2)cc1OCCc1cc(C(=O)O)c(NC(=O)c2ccc(-n3ccnc3)nn2)cc1Cl [Compound 156]
< 50 | C#Cc1cc(NC(=O)c2ccc(-n3ccnc3)nn2)c(C(=O)O)cc1OCCc1cc(NC(=O)c2ccc(-n3ccnc3)nn2)c(C(=O)O)cc1F [Compound 209]
50 to 500 | COC(=O)c1cc(F)c(CCCc2cc(NC(=O)c3ccc(-n4ccnc4)nn3)c(C(=O)OC)s2)cc1NC(=O)c1ccc(-n2ccnc2)nn1 [Compound 165]
50 to 500 | O=C(Nc1cc(CCCc2cc(NC(=O)c3ccc(-n4ccnc4)nn3)c(C(=O)O)cc2Cl)c(F)cc1C(=O)O)c1ccc(-n2ccnc2)nn1 [Compound 174]
